Laboratory results: publication PMC5853558, “De novo identification of lipid II binding lipopeptides with antibacterial activity against vancomycin-resistant bacteria” (Chemical Science, 2017)
*1 amine or outer side, *2 acyl side, *3 side chain or, on linkers, in order; H or OH if unused. Where a SMILES comes first, the peptide text is derived from it. Bridges are numbered along the chain shown (N, C = ends). [ ]: non-standard residue; d: D form. TBMB = c1c(C[*:1])cc(C[*:3])cc1C[*:2]

System: M. luteus (NCTC2665)
Assay: microbe, parasite or virus in culture
Type: cell-based, Micrococcus luteus
Details: for MIC against M. luteus: Table 1, non-lipidated bicyclic peptides, broth microdilution in TSB, 16 h, read visually, n.a. = no activity, highest tested concentration 512 μg mL^–1; for MIC of Ala scan of P8-D against M. luteus: Supplemental table S8, non-lipidated P8 variants, broth microdilution, highest tested 512 µg/ml
Procedure: Section 4 Biological and biochemical experiments
4.1 Minimum inhibitory concentration assay
MIC values were determined by using the broth microdilution method. Peptides were dissolved first in DMSO and diluted with broth so that the final peptide concentration was 1024 µg/ml and the DMSO concentration was 4%. Peptide serial dilutions were made in TSB in a polypropylene 96-wells plate using 50 µl volumes. An overnight culture of the organism of interest was diluted to and OD600 of 0.01 and grown until they reach 0.5. The culture was then diluted to 1 x 10^6 CFU/ml and 50 µl of this suspension was added to each well. The highest concentrations were then 512 µg/ml peptide and 2% DMSO. The plates were incubated at the preferred growth temperature of the organism that was used and 250 rpm. […] When […]
determining the MICs of the lipidated peptides, the lipopeptides were first dissolved in DMSO and diluted with TSB so that the peptide concentration was 128 µg/ml and the DMSO concentration was 4%. After inoculation the highest peptide concentration evaluated was 64 µg/ml and the DMSO concentration was 2%. A DMSO control was tested for each strain to ensure the DMSO did not affect the growth of the particular strain. […]

SMILES	MIC against M. luteus	MIC of Ala scan of P8-D against M. luteus [µg/mL]
CC[C@H](C)[C@@H]1NC(=O)[C@@H]2CSCc3cc(cc(c3)CSC[C@@H](C(=O)NCC(N)=O)NC(=O)[C@H](CCCNC(=N)N)NC(=O)[C@H]([C@@H](C)CC)NC(=O)[C@H](CC(N)=O)NC(=O)[C@H](C)NC(=O)[C@H](CO)NC1=O)CSC[C@H](NC(=O)[C@H](C)N)C(=O)N[C@@H](CCCNC(=N)N)C(=O)N1CCC[C@H]1C(=O)N[C@@H](CCC(N)=O)C(=O)N[C@@H](CCCCN)C(=O)N[C@@H](Cc1ccccc1)C(=O)N[C@@H](CC(N)=O)C(=O)N2 [Peptide P4] (H-ACRPQKFNCISANIRCG-NH2; linker 2-9-16 via TBMB; N-terminus assumed)	64 μg mL^–1	
CC(C)C[C@H]1NC(=O)[C@H](NC(=O)[C@@H](C)N)CSCc2cc3cc(c2)CSC[C@@H](NC(=O)[C@@H](CC(C)C)NC(=O)[C@@H](CC(C)C)NC(=O)[C@@H](CO)NC(=O)[C@@H](CCC(N)=O)NC(=O)[C@@H](CC(C)C)NC1=O)C(=O)N1CCC[C@@H]1C(=O)N[C@H](Cc1ccc(O)cc1)C(=O)N[C@H](CO)C(=O)N[C@H]([C@H](C)O)C(=O)N[C@H](Cc1c[nH]cn1)C(=O)N[C@H](CCCNC(=N)N)C(=O)N[C@@H](C(=O)NCC(N)=O)CSC3 [Peptide P8] (H-[dA][dC][dL][dL][dQ][dS][dL][dL][dC][dP][dY][dS][dT][dH][dR][dC]G-NH2; linker 2-9-16 via TBMB; N-terminus assumed)	64–128 μg mL^–1	128
CC(C)C[C@H]1NC(=O)[C@@H](CO)NC(=O)[C@@H](CCC(N)=O)NC(=O)[C@@H](CC(C)C)NC(=O)[C@@H](CC(C)C)NC(=O)[C@H](NC(=O)[C@@H](C)N)CSCc2cc3cc(c2)CSC[C@@H](NC(=O)[C@@H](C)NC1=O)C(=O)N1CCC[C@@H]1C(=O)N[C@H](Cc1ccc(O)cc1)C(=O)N[C@H](CO)C(=O)N[C@H]([C@H](C)O)C(=O)N[C@H](Cc1c[nH]cn1)C(=O)N[C@H](CCCNC(=N)N)C(=O)N[C@@H](C(=O)NCC(N)=O)CSC3 [Peptide P8-D-L8A] (H-[dA][dC][dL][dL][dQ][dS][dL][dA][dC][dP][dY][dS][dT][dH][dR][dC]G-NH2; linker 2-9-16 via TBMB; N-terminus assumed)		128 to 256
CC(C)C[C@H]1NC(=O)[C@H](NC(=O)[C@@H](C)N)CSCc2cc3cc(c2)CSC[C@@H](NC(=O)[C@@H](CC(C)C)NC(=O)[C@@H](CC(C)C)NC(=O)[C@@H](CO)NC(=O)[C@@H](CCC(N)=O)NC(=O)[C@@H](CC(C)C)NC1=O)C(=O)N[C@H](C)C(=O)N[C@H](Cc1ccc(O)cc1)C(=O)N[C@H](CO)C(=O)N[C@H]([C@H](C)O)C(=O)N[C@H](Cc1c[nH]cn1)C(=O)N[C@H](CCCNC(=N)N)C(=O)N[C@@H](C(=O)NCC(N)=O)CSC3 [Peptide P8-D-P10A] (H-[dA][dC][dL][dL][dQ][dS][dL][dL][dC][dA][dY][dS][dT][dH][dR][dC]G-NH2; linker 2-9-16 via TBMB; N-terminus assumed)		128
CC(C)C[C@H]1NC(=O)[C@H](NC(=O)[C@@H](C)N)CSCc2cc3cc(c2)CSC[C@@H](NC(=O)[C@@H](CC(C)C)NC(=O)[C@@H](CC(C)C)NC(=O)[C@@H](CO)NC(=O)[C@@H](CCC(N)=O)NC(=O)[C@@H](CC(C)C)NC1=O)C(=O)N1CCC[C@@H]1C(=O)N[C@H](Cc1ccc(O)cc1)C(=O)N[C@H](CO)C(=O)N[C@H]([C@H](C)O)C(=O)N[C@H](Cc1c[nH]cn1)C(=O)N[C@H](C)C(=O)N[C@@H](C(=O)NCC(N)=O)CSC3 [Peptide P8-D-R15A] (H-[dA][dC][dL][dL][dQ][dS][dL][dL][dC][dP][dY][dS][dT][dH][dA][dC]G-NH2; linker 2-9-16 via TBMB; N-terminus assumed)		128 to 256
CC(C)C[C@H]1NC(=O)[C@H](NC(=O)[C@@H](C)N)CSCc2cc3cc(c2)CSC[C@@H](NC(=O)[C@@H](CC(C)C)NC(=O)[C@@H](CC(C)C)NC(=O)[C@@H](CO)NC(=O)[C@@H](CCC(N)=O)NC(=O)[C@@H](CC(C)C)NC1=O)C(=O)N1CCC[C@@H]1C(=O)N[C@H](Cc1ccc(O)cc1)C(=O)N[C@H](C)C(=O)N[C@H]([C@H](C)O)C(=O)N[C@H](Cc1c[nH]cn1)C(=O)N[C@H](CCCNC(=N)N)C(=O)N[C@@H](C(=O)NCC(N)=O)CSC3 [Peptide P8-D-S12A] (H-[dA][dC][dL][dL][dQ][dS][dL][dL][dC][dP][dY][dA][dT][dH][dR][dC]G-NH2; linker 2-9-16 via TBMB; N-terminus assumed)		512
CC(C)C[C@H]1NC(=O)[C@@H](CC(C)C)NC(=O)[C@H](NC(=O)[C@@H](C)N)CSCc2cc3cc(c2)CSC[C@@H](NC(=O)[C@@H](CC(C)C)NC(=O)[C@@H](CC(C)C)NC(=O)[C@@H](CO)NC(=O)[C@@H](C)NC1=O)C(=O)N1CCC[C@@H]1C(=O)N[C@H](Cc1ccc(O)cc1)C(=O)N[C@H](CO)C(=O)N[C@H]([C@H](C)O)C(=O)N[C@H](Cc1c[nH]cn1)C(=O)N[C@H](CCCNC(=N)N)C(=O)N[C@@H](C(=O)NCC(N)=O)CSC3 [Peptide P8-D-Q5A] (H-[dA][dC][dL][dL][dA][dS][dL][dL][dC][dP][dY][dS][dT][dH][dR][dC]G-NH2; linker 2-9-16 via TBMB; N-terminus assumed)		> 512
CC(C)C[C@H]1NC(=O)[C@H](NC(=O)[C@@H](C)N)CSCc2cc3cc(c2)CSC[C@@H](NC(=O)[C@@H](CC(C)C)NC(=O)[C@@H](CC(C)C)NC(=O)[C@@H](CO)NC(=O)[C@@H](CCC(N)=O)NC(=O)[C@@H](C)NC1=O)C(=O)N1CCC[C@@H]1C(=O)N[C@H](Cc1ccc(O)cc1)C(=O)N[C@H](CO)C(=O)N[C@H]([C@H](C)O)C(=O)N[C@H](Cc1c[nH]cn1)C(=O)N[C@H](CCCNC(=N)N)C(=O)N[C@@H](C(=O)NCC(N)=O)CSC3 [Peptide P8-D-L4A] (H-[dA][dC][dL][dA][dQ][dS][dL][dL][dC][dP][dY][dS][dT][dH][dR][dC]G-NH2; linker 2-9-16 via TBMB; N-terminus assumed)		> 512
CC(C)C[C@H]1NC(=O)[C@H](NC(=O)[C@@H](C)N)CSCc2cc3cc(c2)CSC[C@@H](NC(=O)[C@@H](CC(C)C)NC(=O)[C@@H](CC(C)C)NC(=O)[C@@H](CO)NC(=O)[C@@H](CCC(N)=O)NC(=O)[C@@H](CC(C)C)NC1=O)C(=O)N1CCC[C@@H]1C(=O)N[C@H](C)C(=O)N[C@H](CO)C(=O)N[C@H]([C@H](C)O)C(=O)N[C@H](Cc1c[nH]cn1)C(=O)N[C@H](CCCNC(=N)N)C(=O)N[C@@H](C(=O)NCC(N)=O)CSC3 [Peptide P8-D-Y11A] (H-[dA][dC][dL][dL][dQ][dS][dL][dL][dC][dP][dA][dS][dT][dH][dR][dC]G-NH2; linker 2-9-16 via TBMB; N-terminus assumed)		512
CC(C)C[C@H]1NC(=O)[C@@H](C)NC(=O)[C@@H](CO)NC(=O)[C@@H](CCC(N)=O)NC(=O)[C@@H](CC(C)C)NC(=O)[C@@H](CC(C)C)NC(=O)[C@H](NC(=O)[C@@H](C)N)CSCc2cc3cc(c2)CSC[C@@H](NC1=O)C(=O)N1CCC[C@@H]1C(=O)N[C@H](Cc1ccc(O)cc1)C(=O)N[C@H](CO)C(=O)N[C@H]([C@H](C)O)C(=O)N[C@H](Cc1c[nH]cn1)C(=O)N[C@H](CCCNC(=N)N)C(=O)N[C@@H](C(=O)NCC(N)=O)CSC3 [Peptide P8-D-L7A] (H-[dA][dC][dL][dL][dQ][dS][dA][dL][dC][dP][dY][dS][dT][dH][dR][dC]G-NH2; linker 2-9-16 via TBMB; N-terminus assumed)		512
CC(C)C[C@H]1NC(=O)[C@@H](C)NC(=O)[C@@H](CCC(N)=O)NC(=O)[C@@H](CC(C)C)NC(=O)[C@@H](CC(C)C)NC(=O)[C@H](NC(=O)[C@@H](C)N)CSCc2cc3cc(c2)CSC[C@@H](NC(=O)[C@@H](CC(C)C)NC1=O)C(=O)N1CCC[C@@H]1C(=O)N[C@H](Cc1ccc(O)cc1)C(=O)N[C@H](CO)C(=O)N[C@H]([C@H](C)O)C(=O)N[C@H](Cc1c[nH]cn1)C(=O)N[C@H](CCCNC(=N)N)C(=O)N[C@@H](C(=O)NCC(N)=O)CSC3 [Peptide P8-D-S6A] (H-[dA][dC][dL][dL][dQ][dA][dL][dL][dC][dP][dY][dS][dT][dH][dR][dC]G-NH2; linker 2-9-16 via TBMB; N-terminus assumed)		64 to 128
CC(C)C[C@H]1NC(=O)[C@H](NC(=O)[C@@H](C)N)CSCc2cc3cc(c2)CSC[C@@H](NC(=O)[C@@H](CC(C)C)NC(=O)[C@@H](CC(C)C)NC(=O)[C@@H](CO)NC(=O)[C@@H](CCC(N)=O)NC(=O)[C@@H](CC(C)C)NC1=O)C(=O)N1CCC[C@@H]1C(=O)N[C@H](Cc1ccc(O)cc1)C(=O)N[C@H](CO)C(=O)N[C@H](C)C(=O)N[C@H](Cc1c[nH]cn1)C(=O)N[C@H](CCCNC(=N)N)C(=O)N[C@@H](C(=O)NCC(N)=O)CSC3 [Peptide P8-D-T13A] (H-[dA][dC][dL][dL][dQ][dS][dL][dL][dC][dP][dY][dS][dA][dH][dR][dC]G-NH2; linker 2-9-16 via TBMB; N-terminus assumed)		512
